Assay results from US7429618B2, “Potassium channel modulators” (Neurosearch A/S, priority 2002, dated 2008).

Row | melting point | Compound
1 | 228 to 230 °C | O=P(O)(O)C(c1ccc(F)cc1)(c1ccc(F)cc1)c1ccccc1F [Compound 10-14, [Bis-(4-fluoro-phenyl)-(2-fluoro-phenyl)-methyl]-phosphonic acid]
2 | 147.7 to 151.8 °C | [O-][n+]1ccccc1SC(c1ccc(F)cc1)(c1ccc(F)cc1)c1ccc(F)cc1 [Compound 5-13, 2-[Tris-(4-fluorophenyl)-methylsulfanyl]-pyridine-N-oxide]
3 | 122 to 123 °C | CCN(CC)C(=O)CSC(c1ccc(F)cc1)(c1ccc(F)cc1)c1ccccc1F [Compound 5-14, 2-[Bis-(4-fluoro-phenyl)-(2-fluoro-phenyl)-methylsulfanyl]-N,N-diethyl-acetamide]
4 | 140.6 to 145.3 °C | CS(=O)(=O)C(c1ccc(F)cc1)(c1ccc(F)cc1)c1ccc(F)cc1 [Compound 7-1, Methyl tris(4-fluorophenyl)methyl sulfone]
5 | 157.4 to 160.6 °C | O=S(=O)(c1ccccc1)C(c1ccc(F)cc1)(c1ccc(F)cc1)c1ccc(F)cc1 [Compound 7-7, Phenyl tris(4-fluorophenyl)methyl sulfone]
6 | 119 to 120 °C | NC(=O)CSC(c1ccc(F)cc1)(c1ccc(F)cc1)c1ccccc1F [Compound 5-17, 2-[Bis-(4-fluoro-phenyl)-(2-fluoro-phenyl)-methylsulfanyl]-acetamide]
7 | 128 to 129 °C | O=C(CSC(c1ccc(F)cc1)(c1ccc(F)cc1)c1ccccc1F)N1CCCCC1 [Compound 5-16, 2-[Bis-(4-fluoro-phenyl)-(2-fluoro-phenyl)-methylsulfanyl]-1-piperidin-1-yl-ethanone]
8 | 112 to 113 °C | O=C(O)CSC(c1ccc(F)cc1)(c1ccc(F)cc1)c1ccccc1F [Compound 5-20, [(2-Fluoro-phenyl)-bis-(4-fluoro-phenyl)-methylsulfanyl]-acetic acid]
9 | 240 °C (dec.) | Cc1ccc(C(c2ccc(F)cc2)(c2ccc(F)cc2)P(=O)(O)O)cc1 [Compound 10-15, [Bis-(4-fluoro-phenyl)-p-tolyl-methyl]-phosphonic acid]
10 | 135.5 to 140.5 °C | Cn1ccnc1SC(c1ccc(F)cc1)(c1ccc(F)cc1)c1ccc(F)cc1 [Compound 5-11, 1-Methyl-2-[tris-(4-fluorophenyl)-methylsulfanyl]-1H-imidazole]
11 | 133 to 134 °C | CC(SC(c1ccc(F)cc1)(c1ccc(F)cc1)c1ccccc1F)C(N)=O (centres unmarked) [Compound 5-18, 2-[Bis-(4-fluoro-phenyl)-(2-fluoro-phenyl)-methylsulfanyl]-propionamide]
12 | 120 to 121 °C | CN(C(=O)CSC(c1ccc(F)cc1)(c1ccc(F)cc1)c1ccccc1F)c1ccccc1 [Compound 5-15, 2-[Bis-(4-fluoro-phenyl)-(2-fluoro-phenyl)-methylsulfanyl]-N-methyl-N-phenyl-acetamide]
13 | 147 to 149 °C | CS(=O)(=O)C(c1ccc(F)cc1)(c1ccc(F)cc1)c1ccccc1F [Compound 7-14, Methanesulphonyl-2-fluorophenyl-bis-(4-fluoro-phenyl) methane]
14 | 111 to 112 °C | N#CCSC(c1ccc(F)cc1)(c1ccc(F)cc1)c1ccccc1F [Compound 5-19, [Bis-(4-fluoro-phenyl)-(2-fluoro-phenyl)-methylsulfanyl]-acetonitrile]

Second part, the molecule before the results:

Row | Compound | melting point
15 | N#CC(c1ccc(F)cc1)(c1ccccc1F)C(c1ccccc1)c1ccccc1 (centres unmarked) [Compound 13, 2-(2-Fluoro-phenyl)-2-(4-fluoro-phenyl)-3,3-diphenyl-propionitrile] | 210 to 215.3 °C
16 | Fc1ccc(C(OP2OCCO2)(c2ccc(F)cc2)c2ccccc2F)cc1 | 163 to 164 °C
17 | O=[N+]([O-])c1ccc(OC(c2ccc(F)cc2)(c2ccc(F)cc2)c2nccs2)cc1C(F)(F)F [Compound 1, 2-[Bis-(4-fluoro-phenyl)-(4-nitro-3-trifluoromethyl-phenoxy)-methyl]-thiazole] | 88.6 to 89.5 °C
18 | COP(=O)(OC)C(c1ccc(F)cc1)(c1ccc(F)cc1)c1ccc(F)cc1 | 131.6 °C
19 | COP(=O)(OC)C(c1ccc(F)cc1)(c1ccccc1F)c1ccccc1Cl (centres unmarked) | 131.5 to 132.5 °C
20 | C=CCC(C#N)(c1ccc(F)cc1)c1ccccc1F (centres unmarked) [Compound 4, 2-(2-Fluoro-phenyl)-2-(4-fluoro-phenyl)-pent-4-enenitrile] | 215 to 219 °C
21 | COP(=O)(OC)C(c1ccc(F)cc1)(c1ccc(F)cc1)c1ccccc1F | 136.6 °C
22 | COP(=O)(OC)C(c1ccc(F)cc1)(c1ccc(F)cc1)c1ccc(Cl)cc1 | 136 to 137 °C
23 | CC(=O)C(C#N)(c1ccc(F)cc1)c1ccc(F)cc1 [Compound 18, 2,2-Bis-(4-fluoro-phenyl)-3-oxo-butyronitrile] | < 50 °C
24 | CC(C)C(C#N)(c1ccc(F)cc1)c1ccc(F)cc1 [Compound 6, 2,2-Bis-(4-fluoro-phenyl)-3-methyl-butyronitrile] | 142.3 to 147 °C
25 | Fc1ccc(C(OP2OCCO2)(c2ccc(F)cc2)c2ccc(F)cc2)cc1 | 195 to 196 °C
26 | N#CC(c1ccc(F)cc1)(c1ccc(F)cc1)C(c1ccccc1)c1ccccc1 [Compound 12, 2,2-Bis-(4-fluoro-phenyl)-3,3-diphenyl-propionitrile] | 208 to 212.5 °C
27 | N#CCC(C#N)(c1ccc(F)cc1)c1ccc(F)cc1 [Compound 24, 2,2-Bis-(4-fluoro-phenyl)-succinonitrile] | 93 to 94 °C
28 | CCOC(=O)C(C(=O)OCC)C(C#N)(c1ccc(F)cc1)c1ccc(F)cc1 [Compound 27, 2-[Cyano-bis-(4-fluoro-phenyl)-methyl]-malonic acid diethyl ester] | 117 to 119 °C
29 | COC(=O)C(C#N)(c1ccc(F)cc1)c1ccccc1F (centres unmarked) [Compound 22, Cyano-(4-fluoro-phenyl)-(2-fluoro-phenyl)-acetic acid methyl ester] | 104 to 105 °C
